Measured values reported in ChEMBL document CHEMBL4765241, “Identification and Preclinical Pharmacology of ((1 R,3 S)-1-Amino-3-(( S)-6-(2-methoxyphenethyl)-5,6,7,8-tetrahydronaphthalen-2-yl)cyclopentyl)methanol (BMS-986166): A Differentiated Sphingosine-1-phosphate Receptor 1 (S1P) Modulator Advanced into Clinical Trials” (J Med Chem, 2019).

Legend:
Cytochrome P450 2B6 = target: T1, Cytochrome P450 2B6 (Homo sapiens, UniProt P20813); test: Inhibition of CYP2B6 (unknown origin); assay type: ADME
T1 sequence (P20813 whole entry): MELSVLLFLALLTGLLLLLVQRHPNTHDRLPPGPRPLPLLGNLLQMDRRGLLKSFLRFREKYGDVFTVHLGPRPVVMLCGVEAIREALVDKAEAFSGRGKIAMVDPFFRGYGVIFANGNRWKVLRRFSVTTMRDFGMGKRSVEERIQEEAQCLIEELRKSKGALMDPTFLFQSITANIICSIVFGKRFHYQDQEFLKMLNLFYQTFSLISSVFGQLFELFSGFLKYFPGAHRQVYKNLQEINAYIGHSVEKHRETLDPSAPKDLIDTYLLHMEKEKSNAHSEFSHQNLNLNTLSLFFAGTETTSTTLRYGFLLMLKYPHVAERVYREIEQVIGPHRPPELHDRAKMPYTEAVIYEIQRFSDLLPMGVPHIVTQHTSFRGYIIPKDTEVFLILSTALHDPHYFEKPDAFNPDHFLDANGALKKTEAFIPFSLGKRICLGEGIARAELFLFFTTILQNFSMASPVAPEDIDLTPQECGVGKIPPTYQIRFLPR

[1] = Terminal half-life in beagle dog at 1 mg/kg, iv; assay type: ADME, organism-based, Canis lupus familiaris; details: in vivo, read-out: beta t1/2 (converted)
Mus musculus [2] = test: Antiarthritic activity in DBA/1 mouse model of collagen-induced arthritis assessed as reduction in paw histological score at 0.5 mg/kg, po QD administered as single dose for 21 days; assay type: functional; parameters: scale not given: the % may be the effect or the level left; details: time 21 day
[3] = Clearance in Beagle dog at 1 mg/kg, iv; assay type: ADME, organism-based, Canis lupus familiaris; details: in vivo
[4] = Dissociation constant, pKa of compound; assay type: physicochemical
[5] = AUC ratio in orally dosed Beagle dog blood assessed as phosphate metabolite to parent compound; assay type: ADME, organism-based, Canis lupus familiaris; details: in vivo, po
Mus musculus [6] = test: Antiarthritic activity in DBA/1 mouse model of collagen-induced arthritis assessed as reduction in paw histological score at 0.1 mg/kg, po QD administered as single dose for 21 days; assay type: functional; parameters: scale not given: the % may be the effect or the level left; details: time 21 day
[7] = Oral bioavailability in cynomolgus monkey at 1 mg/kg; assay type: ADME, organism-based, Macaca fascicularis; details: in vivo
[8] = Ratio of drug metabolism in Lewis rat blood assessed as phosphate ester metabolite to parent drug at 2 mg/kg, po measured at 24 hrs by LC-MS/MS analysis; assay type: ADME, organism-based; details: in vivo
[9] = Tmax in Sprague-Dawley rat at 1 mg/kg, po or 1 mg/kg, iv; assay type: ADME, organism-based; details: in vivo
[10] = Pulmonary toxicity in Lewis rat assessed as elevation of BAL protein level at 10 mg/kg by advia1800 chemistry analyzer; assay type: organism-based; details: in vivo
[11] = Genotoxicity in bacteria by Ames test; assay type: toxicity
[12] = Drug metabolism in Lewis rat blood assessed as concentration of parent compound at 2 mg/kg, po measured at 4 hrs by LC-MS/MS analysis; assay type: ADME, organism-based; details: read-out: Ct
[13] = Metabolic stability in dog liver microsomes assessed as half-life measured upto 120 mins in presence of NADPH-generating system by LC/MS/MS analysis; assay type: ADME, Canis lupus familiaris, Microsome
Cytochrome P450 3A4 = Cytochrome P450 3A4 (Homo sapiens, UniProt P08684); test: Inhibition of CYP3A4 (unknown origin); assay type: ADME
Mus musculus [14] = test: Immunosuppressive activity in MOG (35 to 55 residues)/pertussis toxin-induced experimental autoimmune encephalomyelitis C57BL/6 mouse model assessed as reduction in clinical scores for inflammation administered orally once daily starting from day 1 post immunization and measured thrice weekly until day 24; assay type: functional, organism-based; details: dose 0.1-0.5 mg/kg
Cytochrome P450 2C19 = Cytochrome P450 2C19 (Homo sapiens, UniProt P33261); test: Inhibition of CYP2C19 (unknown origin); assay type: ADME
[15] = Clearance in Sprague-Dawley rat at 1 mg/kg, iv; assay type: ADME, organism-based; details: in vivo
[16] = Protein binding in mouse assessed as bound fraction; assay type: ADME; details: read-out: PB
[17] = Protein binding in cynomolgus monkey assessed as bound fraction; assay type: ADME, Macaca fascicularis; details: read-out: PB
Rattus norvegicus = test: Drug metabolism in Lewis rat blood assessed as concentration of phosphate ester metabolite formation at 2 mg/kg, po measured at 4 hrs by LC-MS/MS analysis; details: in vivo
[18] = Distribution coefficient, log D of compound at pH 6.5; assay type: physicochemical; details: octanol/water

Sequence of Cytochrome P450 2C19 (P33261 whole entry): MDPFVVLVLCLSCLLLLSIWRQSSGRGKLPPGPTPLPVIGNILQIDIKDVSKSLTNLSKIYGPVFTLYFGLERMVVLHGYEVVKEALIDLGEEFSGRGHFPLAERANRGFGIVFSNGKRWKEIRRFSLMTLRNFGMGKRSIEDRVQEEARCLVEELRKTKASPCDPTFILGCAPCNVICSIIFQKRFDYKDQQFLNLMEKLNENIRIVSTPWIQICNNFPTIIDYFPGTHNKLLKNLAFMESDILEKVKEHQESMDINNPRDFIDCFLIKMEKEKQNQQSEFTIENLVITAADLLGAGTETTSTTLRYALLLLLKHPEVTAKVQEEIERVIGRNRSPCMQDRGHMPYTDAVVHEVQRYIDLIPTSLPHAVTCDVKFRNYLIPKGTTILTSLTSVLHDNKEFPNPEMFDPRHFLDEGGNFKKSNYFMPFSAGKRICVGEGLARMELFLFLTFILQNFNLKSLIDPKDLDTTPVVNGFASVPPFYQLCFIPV
Sequence of Cytochrome P450 3A4 (P08684 whole entry, the tested form may be a part): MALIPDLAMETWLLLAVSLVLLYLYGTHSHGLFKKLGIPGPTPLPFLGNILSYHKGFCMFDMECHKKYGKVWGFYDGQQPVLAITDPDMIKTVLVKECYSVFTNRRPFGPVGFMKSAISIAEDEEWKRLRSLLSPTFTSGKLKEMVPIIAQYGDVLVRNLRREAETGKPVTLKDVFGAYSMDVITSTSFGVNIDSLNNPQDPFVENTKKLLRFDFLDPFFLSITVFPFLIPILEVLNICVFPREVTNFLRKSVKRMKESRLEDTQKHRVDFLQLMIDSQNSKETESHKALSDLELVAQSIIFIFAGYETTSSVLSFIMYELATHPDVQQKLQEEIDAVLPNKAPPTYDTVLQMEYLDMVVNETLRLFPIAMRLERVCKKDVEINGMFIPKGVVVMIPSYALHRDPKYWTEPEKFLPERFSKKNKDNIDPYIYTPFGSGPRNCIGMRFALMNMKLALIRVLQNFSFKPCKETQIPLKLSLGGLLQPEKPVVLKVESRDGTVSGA

COc1ccccc1CC[C@@H]1CCc2cc([C@H]3CC[C@](N)(CO)C3)ccc2C1 [UDIFITIMOD]
IC50 (Cytochrome P450 2B6): 17 µM
half-life [1]: 165 h
Activity (Mus musculus [2]): 92%
clearance [3]: 1.9 mL/min/kg
pKa [4]: 9.5
Ratio AUC [5]: 3.1
Activity (Mus musculus [6]): 41%
bioavailability [7]: 76%
Ratio [8]: 5
Tmax [9]: 6 h
Activity [10]: 14 mg/dL
Activity [11]: Non-Toxic
concentration at 4 h [12]: 40 nM
half-life [13]: 6.2 h
IC50 (Cytochrome P450 3A4): 5.5 µM
Activity (Mus musculus [14]): Dose-dependent effect
IC50 (Cytochrome P450 2C19): 6.9 µM
clearance [15]: 9.7 mL/min/kg
fraction unbound [16]: < 0.001
fraction unbound [17]: < 0.001
Drug metabolism (Rattus norvegicus): 180 nM
logD [18]: 5.05
